For data set [1] the following is noted: human blood samples at room temperature; cited from earlier work.
Data set [2] is described as follows: Short-term stability of immunoreactive ACTH in whole blood stored 1 h at 4, 20, 30, 40 or 70 °C. Type of data set: in vitro ADME, horse. The settings on record: for Mean change of immunoreactive ACTH concentration after 1 h: whole blood 1 h at 20 °C vs 4 °C; for ACTH concentration as percentage of the reference sample (4 °C = 100%), range over horses: equine EDTA whole blood. As for the experimental part:
For horses that underwent TRH stimulation, blood was collected 30 min after receiving 1 mg of TRH intravenously (Sigma-Aldrich Pty Ltd. (subsidiary of Merck), North Ryde BC, New South Wales, Australia). Blood was sampled between 7 and 8 am. All procedures were approved by the University of Queensland Animal Ethics Committee, approval number SVS/474/17, 22nd December 2017.
Samples were taken to the laboratory within 1 h of collection. They were then stored as whole blood either in a temperature-monitored refrigerator (4 °C), in a temperature-controlled room (20 °C), or in incubators (30, 40, or 70 °C) for 1 h. Samples were then centrifuged at 3500× g at 4 °C for 10 min. The plasma was separated and analyzed within 2 h of collection from the horse. […] Due to the necessity of analyzing all samples within a 2-h window from collection, and limitations on the speed of the analyzer, the 15 horses were sampled over a 4-day period. The samples from each horse were run using the same kit.
The reference sample was defined as the sample stored at 4 °C.

For data set [3] the following is noted: delaying centrifugation of horse blood by 1 h; cited from earlier work.
For data set [4] the following is noted: room temperature (21 °C), analyzed prior to 8 h; mostly PPID-negative horses; cited from earlier work. From the text: In contrast, our study found t ...

For the substance “human ACTH: endogenous human ACTH, reported as highly unstable due to proteolytic degradation (SYSMEHFRWGKPVGKKRRPVKVYPNGAEDESAEAFPLEF; Corticotropin; UniProt P01189 138-176, looked up)”, the “Time at room temperature prior to centrifugation at which the measured ACTH concentration is altered” value in data set [1] is recorded as no less than 4 h.

In the case of adrenocorticotropic hormone [ACTH], the “Mean change of immunoreactive ACTH concentration after 1 h” value is reported as 5% in data set [2] (PPID horses) and 12% in data set [2] (non-PPID horses). Moreover, in data set [2] (equine EDTA whole blood stored 1 h at 20 °C vs 4 °C reference, then centrifuged, plasma immunoreactive ACTH by Immulite 1000 chemiluminescent assay, 15 horses), the “Bland–Altman mean bias of ACTH concentration, 4 versus 20 °C” value was -2.8 pg/mL. In data set [2] (equine EDTA whole blood stored 1 h at 30 °C vs 4 °C reference, Immulite 1000 chemiluminescent assay, 15 horses), the “Bland–Altman mean bias of ACTH concentration, 4 versus 30 °C” value was -1.38 pg/mL. Also, in data set [2] (equine EDTA whole blood stored 1 h at 40 °C vs 4 °C reference, Immulite 1000 chemiluminescent assay, 15 horses), the “Bland–Altman mean bias of ACTH concentration, 4 versus 40 °C” value is -0.16 pg/mL. In data set [2] (equine EDTA whole blood stored 1 h at 70 °C vs 4 °C reference, Immulite 1000 chemiluminescent assay, only 9 of 15 samples analysable), the “Bland–Altman mean bias of ACTH concentration, 4 versus 70 °C” value amounted to 10.1 pg/mL. Moreover, the “ACTH concentration as percentage of the reference sample (4 °C = 100%), range over horses” value is on record as 84.3 to 122.1% in data set [2] (1 h at 20 °C, Immulite 1000 chemiluminescent assay, 15 horses (PPID and non-PPID, basal and post-TRH), not significant); 89.4 to 115.6% in data set [2] (1 h at 30 °C, Immulite 1000, 15 horses, not significant); 86.5 to 116.3% in data set [2] (1 h at 40 °C, Immulite 1000, 15 horses, not significant); 72 to 94.4% in data set [2] (1 h at 70 °C, Immulite 1000, 9 of 15 samples analysable (solidification), p = 0.001). Besides, the “Measured ACTH concentration, reference sample” value in data set [2] (one non-PPID horse, post-TRH stimulation, whole blood 1 h at 4 °C, single horse) came out at 60.9 pg/mL. The “Measured ACTH concentration after storage” value was 69.1 pg/mL in data set [2] (one non-PPID horse, post-TRH stimulation, whole blood 1 h at 20 °C, single horse) and 70.8 pg/mL in data set [2] (one non-PPID horse, post-TRH stimulation, whole blood 1 h at 40 °C, single horse). Moreover, the “Deviation of measured ACTH concentration above the same sample stored at 4 °C” value in data set [2] (whole blood 1 h at 20 °C, maximum over horses) was “up to 22%”. Moreover, in data set [3], the “Mean reduction in the measured ACTH concentration” value is given as 11.6 pg/mL. Moreover, the “Difference between samples kept at room temperature and at 4 °C” value in data set [4] is on record as “no difference”.

The values above are taken from article PMC8833476, “Short-Term Effects of Temperature and Thyrotropin-Releasing Hormone Stimulation on Adrenocorticotropin Stability in Horses” (Animals : an Open Access Journal from MDPI, 2022).
